Laboratory results taken from patent publication US4797400A, “Piperazine compounds and anti-ulcer composition containing the same” (Kanebo, Ltd., priority 1986, dated 1989).
Where a name gives a salt, the structure may show the parent alone.

Assays:
[1] = tested on: ethanol-induced gastric ulcer; assay: Inhibitory effect on ethanol-induced gastric ulcer; format: in vivo, male Sprague-Dawley (SD) rats; settings: Rattus norvegicus, po, 1 h; p.o.; male SD rats; ethanol (99.5%, 1 ml) orally 30 minutes after test compound; ulcer index after one hour
Experimental: The compounds of this invention have potent activity for promoting the action of the defensive factor. The activity can be evaluated by the defensive action against ulcer induced by ethanol (e.g. inhibitory effect on ethanol-induced gastric ulcer) [cf. Hara, Nobuyuki et al., Pharmacometrics, 29, 557 (1985)]. […] Inhibitory effect on ethanol-induced gastric ulcer: Male Sprague-Dawley (SD) rats (weighing 180-220 g, 8 weeks age, 16 rats per group) were fasted for 24 hours, and to the rats was orally administered the test compound in the form of a solution in distilled water or a suspension in 1% aqueous gum arabic. After 30 minutes, ethanol (99.5%, 1 ml) was orally administered to the rats in the same manner as described by Robert et al. [cf. Gastroenterology, 77, 433 (1979)]. One hour after the administration of ethanol, the rats were sacrificed under ether anesthesia, and the stomach was removed. Into the stomach was poured 1% formalin (12 ml), and then the stomach was immersed in 1% formalin for 15 minutes. The stomach was cut along the greater curvature, and the length (mm) of each ulcer occured on the fundic mucosa was measured with a dissecting microscope. Sum of the length of ulcers in each rat was used as the ulcer index in each rat. In control rats to which no test compound was administered, the ulcer index was determined likewise, and the mean value (mean ulcer index) was calculated. […] A dose-response curve was drawn based on the ratio thus obtained and the dose of test compounds, and therefrom, the 50% effective dose (ED50) was determined.

[2] = tested on: water-immersion stress-induced gastric ulcer; assay: Inhibitory effect on water-immersion stress-induced gastric ulcer; format: in vivo; settings: Rattus norvegicus, po; male SD rats; water bath at 23° C., 17 hours
Experimental: Inhibitory effect on water-immersion stress-induced gastric ulcer: Male SD rats (weighing 190-230 g, 8 weeks age, 16 rats per group) were fasted for 24 hours, and to the rats was orally administered the test compound in the form of a solution in distilled water or a suspension in 1% aqueous gum arabic. After 15 minutes, the rats were immersed vertically to the height of the xiphoid of the rats in water bath at 23° C. within a stress cage in the same manner as described by Takagi et al. [cf. Japanese Journal of Pharmacology, 18, 9 (1968)]. After 17 hours, the rats were sacrificed under ether anesthesia and the stomach was removed. The stomach was treated with formalin and the ulcer index as well as ED50 were determined in the same manner as described in Experiment 1.

[3] = tested on: indomethacin-induced gastric ulcer; assay: Inhibitory effect on indomethacin-induced gastric ulcer; format: in vivo; settings: Rattus norvegicus, po; male SD rats; indomethacin 30 mg/kg s.c.; ulcer index after 5 hours
Experimental: Inhibitory effect on indomethacin-induced gastric ulcer: It was done in the same manner as described by Okabe et al. [cf. Digestive Diseases and Science, 28, 1034 (1983)]. That is, male SD rats (weighing 180-220 g, 8 weeks age, 16 rats per group) were fasted for 24 hours, and to the rats was orally administered the test compound in the form of a solution in distilled water or a suspension in 1% aqueous gum arabic. After 15 minutes, to the rats was subcutaneously administered indomethacin (30 mg/kg) in the form of a solution in 3% aqueous sodium hydrogen carbonate solution. After 5 hours, the rats were sacrificed under ether anesthesia and the stomach was removed. The stomach was treated with formalin and the ulcer index as well as ED50 were determined in the same manner as described in Experiment 1.

Acute toxicity = settings: mouse, in vivo, po; male ddY mice; death observed for 7 days; Weil's method
Experimental: To male ddY mice (weighing 18-22 g, 4 weeks age, […] mice per group) fasted overnight was orally administered the test compound in the form of a solution in distilled water or a suspension in 1% aqueous gum arabic. […] From the number of dead mice, LD50 was determined in the same manner as Weil's method.

Row | SMILES | ED50 [1] [mg/kg] | ED50 [2] [mg/kg] | ED50 [3] [mg/kg] | LD50 at 168 h (Acute toxicity) [mg/kg]
1 | COc1ccc(OC(=O)CN2CCN(Cc3ccc(OC)c(OC)c3OC)CC2)cc1.Cl.Cl [Compound 1, 1-[(4-Methoxyphenoxy)carbonylmethyl]-4-(2,3,4-trimethoxybenzyl)piperazine dihydrochloride] | 27 | 88 | 10 | 4200
2 | COc1ccc(OC(=O)CN2CCN(Cc3cc(OC)c(OC)c(OC)c3)CC2)cc1.O.O=C(O)/C=C/C(=O)O.O=C(O)/C=C/C(=O)O [Compound 2, 1-[(4-Methoxyphenoxy)carbonylmethyl]-4-(3,4,5-trimethoxybenzyl)piperazine difumarate monohydrate] | 30 | 123 | 11 | 4800
3 | NC[C@H]1CC[C@H](C(=O)Oc2ccc(CCC(=O)O)cc2)CC1 [Reference compound, Cetraxate hydrochloride, reference compound] | 112 | > 1000 | 361 | > 8000
